US20210115104A1, “AMYLIN ANALOGUES” (Zealand Pharma A/S, priority 2015, published 2021)
*1 amine or outer side, *2 acyl side, *3 side chain or, on linkers, in order; H or OH if unused. Where a SMILES comes first, the peptide text is derived from it. Bridges are numbered along the chain shown (N, C = ends). [ ]: non-standard residue; d: D form. The star is where a group is joined. C20 diacid = O=C(O)CCCCCCCCCCCCCCCCCCC(=O)*; γGlu = O=C(O)[C@H](CCC(=O)[*:2])N[*:1]; Hyp = O=C(O)[C@@H]1C[C@@H](O)CN1; NMeI = CC[C@H](C)[C@H](NC)C(=O)O; Sar = CNCC(=O)O

Assays:
[1] = target: T1, human calcitonin receptor (hCTR2) (Homo sapiens, UniProt P30988); assay: hCTR2 cAMP assay (AlphaScreen) in COS7 cells; assay type: cell-based; conditions: cAMP induction, COS7 cells expressing hCTR2; Table 1; read-out: hCTR2 EC50
T1 construct: expressed in transfected cells
T1 sequence (P30988 25-474): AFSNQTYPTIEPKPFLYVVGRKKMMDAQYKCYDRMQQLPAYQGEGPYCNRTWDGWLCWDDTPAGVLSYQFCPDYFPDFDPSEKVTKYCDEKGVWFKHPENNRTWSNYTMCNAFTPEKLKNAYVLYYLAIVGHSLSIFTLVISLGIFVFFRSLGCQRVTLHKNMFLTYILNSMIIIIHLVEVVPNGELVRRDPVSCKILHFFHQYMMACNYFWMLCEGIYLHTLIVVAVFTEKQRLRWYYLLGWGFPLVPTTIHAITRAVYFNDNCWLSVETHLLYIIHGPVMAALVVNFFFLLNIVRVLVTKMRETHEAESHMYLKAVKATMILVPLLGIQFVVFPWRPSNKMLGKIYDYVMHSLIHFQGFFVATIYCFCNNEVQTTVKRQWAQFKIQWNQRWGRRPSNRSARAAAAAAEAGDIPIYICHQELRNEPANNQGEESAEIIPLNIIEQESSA
In short: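 Stable hCTR2 clone in RAMP-naïve COS7 cells stimulated 15 min at 37 °C with increasing peptide concentrations in Tyrode buffer pH 7.4 containing IBMX and 0.1% casein. cAMP in lysates measured by AlphaScreen; EC50 from 4-parameter logistic fit.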

[2] = Assessment of physical stability (Thioflavin T fibrillation); assay type: physicochemical; set-up: key: FND = fibrillation not detected; FD = fibrillation detected; conditions: 1 mg/ml, 40° C., ThT; for Fibrillation pH 4.0 (Ac): 50 mM acetate buffer pH 4.0, 96 hours; for Fibrillation pH 7.0 (His): 50 mM histidine buffer pH 7.0, 96 hours; for Fibrillation pH 7.0 (Phos.): 50 mM phosphate buffer pH 7.0, 96 hours
In short: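 1 mg/ml peptide with 40 μM ThT in 50 mM phosphate pH 7.0, 50 mM histidine pH 7.0 or 50 mM acetate pH 4.0, in triplicate. Fluorescence read every 10 min after 300 s agitation over 96 h at 40 °C. Lag-time (h) is the intersection of linear fits to stable and growth phases.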

[3] = target: T2, human amylin receptor 3 (hAMYR3), hCTR2 co-expressed with hRAMP3 (Homo sapiens, UniProt O60896+P30988); assay: hAMYR3 cAMP assay (AlphaScreen) in COS7 cells; assay type: cell-based; conditions: cAMP induction, COS7 cells expressing hAMYR3; Table 1; read-out: hAMYR3 EC50
T2 construct: expressed in transfected cells
T2 sequence (P30988 25-474): T1 sequence (P30988 25-474)
T2 sequence (O60896 24-148 partner): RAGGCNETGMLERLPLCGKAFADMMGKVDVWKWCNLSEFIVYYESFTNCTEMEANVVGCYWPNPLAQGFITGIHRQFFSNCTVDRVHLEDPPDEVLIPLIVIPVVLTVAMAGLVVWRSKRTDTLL
In short: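 Stable COS7 clone co-expressing hCTR2 and hRAMP3 was exposed to increasing peptide concentrations in Tyrode buffer (pH 7.4) with 100 µM IBMX and 0.1% casein for 15 min at 37 °C. Lysate cAMP was measured by AlphaScreen; EC50 came from 4-parameter logistic fitting.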

Row | SMILES | EC50 [1] [pM] | Fibrillation pH 4.0 (Ac) [2] | Fibrillation pH 7.0 (His) [2] | Fibrillation pH 7.0 (Phos.) [2] | EC50 [3] [pM]
1 | CC[C@H](C)[C@@H](C(=O)N[C@@H](CC(C)C)C(=O)N[C@@H](CO)C(=O)N[C@@H](CO)C(=O)N[C@H](C(=O)N[C@@H](CCC(=O)O)C(=O)N[C@H](C(=O)NCC(=O)N[C@@H](CO)C(=O)N[C@@H](CCC(=O)O)C(=O)N[C@H](C(=O)N1CCC[C@H]1C(N)=O)[C@@H](C)O)C(C)C)[C@@H](C)O)N(C)C(=O)[C@H](C)NC(=O)CN(C)C(=O)[C@H](Cc1ccccc1)NC(=O)[C@@H](NC(=O)[C@H](CO)NC(=O)[C@H](CCCNC(=N)N)NC(=O)[C@H](Cc1c[nH]cn1)NC(=O)[C@H](CC(C)C)NC(=O)[C@H](Cc1ccccc1)NC(=O)[C@H](Cc1c[nH]cn1)NC(=O)[C@H](C)NC(=O)[C@H](CC(C)C)NC(=O)[C@H](CCCNC(=N)N)NC(=O)[C@H](CCC(N)=O)NC(=O)[C@@H](NC(=O)[C@H](C)NC(=O)[C@@H]1CSSC[C@H](NC(=O)[C@H](CCCNC(=N)N)NC(=O)CC[C@H](NC(=O)CCCCCCCCCCCCCCCCCCC(=O)O)C(=O)O)C(=O)N[C@@H](CC(N)=O)C(=O)N[C@@H]([C@@H](C)O)C(=O)N[C@@H](C)C(=O)N[C@@H]([C@@H](C)O)C(=O)N1)[C@@H](C)O)C(C)C [Compound 20, [19CD]-isoGlu-R-C( )-NTAT-C( )-ATQRLAHFLHRSVF-Gly(Me)-A-Ile(Me)-LSSTEVGSETP-NH2] ({C20 diacid-γGlu}-RCNTATCATQRLAHFLHRSVF[Sar]A[NMeI]LSSTEVGSETP-NH2; disulfide 2-7) | 190 | FND | FD | FND | 330
2 | CC[C@H](C)[C@@H](C(=O)N[C@@H](CC(C)C)C(=O)N[C@@H](CO)C(=O)N[C@@H](CO)C(=O)N[C@H](C(=O)N[C@@H](CCC(=O)O)C(=O)N[C@H](C(=O)NCC(=O)N[C@@H](CO)C(=O)N[C@@H](CCC(=O)O)C(=O)N[C@H](C(=O)N1CCC[C@H]1C(N)=O)[C@@H](C)O)C(C)C)[C@@H](C)O)N(C)C(=O)[C@H](C)NC(=O)CN(C)C(=O)[C@H](Cc1ccccc1)NC(=O)[C@H](CO)NC(=O)[C@@H](NC(=O)[C@H](CCCNC(=N)N)NC(=O)[C@H](Cc1c[nH]cn1)NC(=O)[C@H](CC(C)C)NC(=O)[C@H](Cc1ccccc1)NC(=O)[C@H](Cc1c[nH]cn1)NC(=O)[C@H](C)NC(=O)[C@H](CC(C)C)NC(=O)[C@H](CCCNC(=N)N)NC(=O)[C@H](CCC(N)=O)NC(=O)[C@@H](NC(=O)[C@H](C)NC(=O)[C@@H]1CSSC[C@H](NC(=O)[C@H](CCCNC(=N)N)NC(=O)CC[C@H](NC(=O)CCCCCCCCCCCCCCCCCCC(=O)O)C(=O)O)C(=O)N[C@@H](CC(N)=O)C(=O)N[C@@H]([C@@H](C)O)C(=O)N[C@@H](C)C(=O)N[C@@H]([C@@H](C)O)C(=O)N1)[C@@H](C)O)C(C)C [Compound 21, [19CD]-isoGlu-R-C( )-NTAT-C( )-ATQRLAHFLHRVSF-Gly(Me)-A-Ile(Me)-LSSTEVGSETP-NH2] ({C20 diacid-γGlu}-RCNTATCATQRLAHFLHRVSF[Sar]A[NMeI]LSSTEVGSETP-NH2; disulfide 2-7) | 120 | FND | FD | FD | 230
3 | CC[C@H](C)[C@@H](C(=O)N[C@@H](CC(C)C)C(=O)N[C@@H](CO)C(=O)N[C@@H](CO)C(=O)N[C@H](C(=O)N[C@@H](CC(=O)O)C(=O)N[C@H](C(=O)NCC(=O)N[C@@H](CO)C(=O)N[C@@H](CC(=O)O)C(=O)N[C@H](C(=O)N1CCC[C@H]1C(N)=O)[C@@H](C)O)C(C)C)[C@@H](C)O)N(C)C(=O)[C@H](C)NC(=O)CN(C)C(=O)[C@H](Cc1ccccc1)NC(=O)[C@H](CO)NC(=O)[C@H](CO)NC(=O)[C@H](CCCNC(=N)N)NC(=O)[C@H](Cc1c[nH]cn1)NC(=O)[C@H](CC(C)C)NC(=O)[C@H](Cc1ccccc1)NC(=O)[C@H](Cc1c[nH]cn1)NC(=O)[C@H](C)NC(=O)[C@H](CC(C)C)NC(=O)[C@H](CCCNC(=N)N)NC(=O)[C@H](CC(=O)O)NC(=O)[C@@H](NC(=O)[C@H](C)NC(=O)[C@@H]1CSSC[C@H](NC(=O)[C@H](CCCNC(=N)N)NC(=O)CC[C@H](NC(=O)CCCCCCCCCCCCCCCCCCC(=O)O)C(=O)O)C(=O)N2CCC[C@H]2C(=O)N[C@@H]([C@@H](C)O)C(=O)N[C@@H](C)C(=O)N[C@@H]([C@@H](C)O)C(=O)N1)[C@@H](C)O [Compound 27, [19CD]-isoGlu-R-C( )-PTAT-C( )-ATDRLAHFLHRSSF-Gly(Me)-A-Ile(Me)-LSSTDVGSDTP-NH2] ({C20 diacid-γGlu}-RCPTATCATDRLAHFLHRSSF[Sar]A[NMeI]LSSTDVGSDTP-NH2; disulfide 2-7) | 63 | FD | FD | FD | 160
4 | CC[C@H](C)[C@@H](C(=O)N[C@@H](CC(C)C)C(=O)N[C@@H](CO)C(=O)N[C@@H](CO)C(=O)N[C@H](C(=O)N[C@@H](CCC(=O)O)C(=O)N[C@H](C(=O)NCC(=O)N[C@@H](CO)C(=O)N[C@@H](CO)C(=O)N[C@H](C(=O)N1C[C@H](O)C[C@H]1C(N)=O)[C@@H](C)O)C(C)C)[C@@H](C)O)N(C)C(=O)[C@H](C)NC(=O)CN(C)C(=O)[C@H](Cc1ccccc1)NC(=O)[C@H](CO)NC(=O)[C@H](CO)NC(=O)[C@H](CCCNC(=N)N)NC(=O)[C@H](Cc1c[nH]cn1)NC(=O)[C@H](CC(C)C)NC(=O)[C@H](Cc1ccccc1)NC(=O)[C@H](Cc1c[nH]cn1)NC(=O)[C@H](C)NC(=O)[C@H](CC(C)C)NC(=O)[C@H](CCCNC(=N)N)NC(=O)[C@H](CCC(=O)O)NC(=O)[C@@H](NC(=O)[C@H](C)NC(=O)[C@@H]1CSSC[C@H](NC(=O)[C@H](CCCNC(=N)N)NC(=O)CC[C@H](NC(=O)CCCCCCCCCCCCCCCCCCC(=O)O)C(=O)O)C(=O)NCC(=O)N[C@@H]([C@@H](C)O)C(=O)N[C@@H](C)C(=O)N[C@@H]([C@@H](C)O)C(=O)N1)[C@@H](C)O [Compound 30, [19CD]-isoGlu-R-C( )-GTAT-C( )-ATERLAHFLHRSSF-Gly(Me)-A-Ile(Me)-LSSTEVGSST-Hyp-NH2] ({C20 diacid-γGlu}-RCGTATCATERLAHFLHRSSF[Sar]A[NMeI]LSSTEVGSST[Hyp]-NH2; disulfide 2-7) | 70 | FND | FD | FD | 120
5 | CC[C@H](C)[C@@H](C(=O)N[C@@H](CC(C)C)C(=O)N[C@@H](CO)C(=O)N[C@@H](CO)C(=O)N[C@H](C(=O)N[C@@H](CCC(=O)O)C(=O)N[C@H](C(=O)NCC(=O)N[C@@H](CO)C(=O)N[C@@H](Cc1ccccc1)C(=O)N[C@H](C(=O)N1C[C@H](O)C[C@H]1C(N)=O)[C@@H](C)O)C(C)C)[C@@H](C)O)N(C)C(=O)[C@H](C)NC(=O)CN(C)C(=O)[C@H](Cc1ccccc1)NC(=O)[C@H](CO)NC(=O)[C@H](CO)NC(=O)[C@H](CCCNC(=N)N)NC(=O)[C@H](CCC(N)=O)NC(=O)[C@H](CC(C)C)NC(=O)[C@H](Cc1ccccc1)NC(=O)[C@H](Cc1c[nH]cn1)NC(=O)[C@H](C)NC(=O)[C@H](CC(C)C)NC(=O)[C@H](CCCNC(=N)N)NC(=O)[C@H](CCC(=O)O)NC(=O)[C@@H](NC(=O)[C@H](C)NC(=O)[C@@H]1CSSC[C@H](NC(=O)[C@H](CCCNC(=N)N)NC(=O)CC[C@H](NC(=O)CCCCCCCCCCCCCCCCCCC(=O)O)C(=O)O)C(=O)NCC(=O)N[C@@H]([C@@H](C)O)C(=O)N[C@@H](C)C(=O)N[C@@H]([C@@H](C)O)C(=O)N1)[C@@H](C)O [Compound 32, [19CD]-isoGlu-R-C( )-GTAT-C( )-ATERLAHFLQRSSF-Gly(Me)-A-Ile(Me)-LSSTEVGSFT-Hyp-NH2] ({C20 diacid-γGlu}-RCGTATCATERLAHFLQRSSF[Sar]A[NMeI]LSSTEVGSFT[Hyp]-NH2; disulfide 2-7) | 170 | FND | FD | FD | 230
